Patent publication US6908942B2, “6-amino-2,2-dimethyl-3,4,6-trisubstituted benzopyran derivatives and their construction by parallel synthesis on solid-phase” (Korea Research Institute of Chemical Technology, priority 2002, dated 2005)

Test system: lipid peroxidation induced by iron
Assay: Inhibitory effect on iron-induced lipid peroxidation in rat brain homogenate (MDA measurement, N-methyl-2-phenylindole, Bioxytech LPO-586 Kit)
Type: biochemical
Settings: FeCl2 400 μM, 30 min at 37° C., decrease of MDA vs DMSO control, absorption at 586 nm
Protocol: The inhibitory effect of the present compounds on lipid peroxidation induced by iron was evaluated as follows:
Rat brain was homogenized in Krebs buffer (15 mM HEPES, 10 mM glucose, 140 mM NaCl, 3.6 mM KCl, 1.5 mM CaCl2, 1.4 mM KH2PO4 and 0.7 mM MgCl, pH 7.4) and centrifuged at 12,000 rpm to obtain the supernatant serving as a raw material of lipid. To the brain homogenates, FeCl^2 was added to give a final concentration of 400 μM and allowed to stand for 30 min at 37° C. for promoting oxidation. Each of the compounds to be tested was added to give a concentration of 12.5 μM and a control group was solely added with dimethylsulfoxide (DMSO).
When iron is added to brain homogenates, oxidation is promoted to increase the amount of malondialdehyde (MDA) as lipid peroxidation product. Therefore, in this Example, the level of lipid peroxidation was evaluated according to MDA measurement method. In general MDA measurement, the test sample is reacted with TBA (2-thiobarbituric acid) and the absorbance at 530 nm was measured. However, since such process includes a boiling step, it is unsuitable for dealing with test samples in large quantity. Therefore, in this Example, N-methyl-2-phenylindole was used as a color developing reagent in place of TBA so as to avoid boiling step. […] The inhibitory effect on lipid peroxidation of test compounds was evaluated by calculating the decreased level of MDA in percentage based on the amount of MDA in the control group. For the test compounds showing more than 80% inhibitory effect, the concentration-lipid peroxidation inhibition curves were plotted with reference to the decrease rate of MDA amount based on the amount of MDA in the control group and their IC50 values was calculated through least linear regression analysis.
In addition, the representative antioxidants commercialized such as Promethazine, Trolox, Probucol and N-propyl gallate were examined in terms of 50% inhibition concentration (IC50) according to the above procedure and the results are shown in Table 4.

IC50 [µM] | Compound
5.34 | CNc1ccc2c(c1)C(OCCC1CCCCC1)C(OCc1ccccc1)C(C)(C)O2 (centres unmarked) [Compound 5-97]
2.23 | CCCCOC1c2cc(NC)ccc2OC(C)(C)C1OC(=O)c1ccccc1 (centres unmarked) [Compound 5-1515]
4.15 | CCOC1c2cc(NCc3ccc(F)cc3)ccc2OC(C)(C)C1OCc1ccccc1Cl (centres unmarked) [Compound 5-470]
2.66 | Cc1ccccc1COC1C(OC(C)C)c2cc(NCc3ccc(F)cc3)ccc2OC1(C)C (centres unmarked) [Compound 5-485]
5.27 | C/C=C/COC1C(OCCc2ccccc2)c2cc(NCc3ccccc3)ccc2OC1(C)C (centres unmarked) [Compound 5-318]
2.5 | CCCCCOC1C(OCc2ccccc2)c2cc(NC)ccc2OC1(C)C (centres unmarked) [Compound 5-77]
3.04 | CNc1ccc2c(c1)C(OC)C(OC(=O)c1ccco1)C(C)(C)O2 (centres unmarked) [Compound 5-1490]
1.39 | CCOC1c2cc(NC)ccc2OC(C)(C)C1OCc1cccc(F)c1 (centres unmarked) [Compound 5-68]
3.33 | CNc1ccc2c(c1)C(OC)C(OC(=O)c1cccs1)C(C)(C)O2 (centres unmarked) [Compound 5-1489]
6.34 | CCCCOC1c2cc(NC)ccc2OC(C)(C)C1OC(=O)c1ccc(C)cc1 (centres unmarked) [Compound 5-1516]
5.3 | CNc1ccc2c(c1)C(OCCC1CCCCC1)C(OCc1ccc(F)cc1)C(C)(C)O2 (centres unmarked) [Compound 5-98]
1.35 | CCOC1c2cc(NCc3ccc(F)cc3)ccc2OC(C)(C)C1OC (centres unmarked) [Compound 5-476]
2.85 | CCCCOC1c2cc(NC)ccc2OC(C)(C)C1OCc1ccccc1 (centres unmarked) [Compound 5-49]
1.36 | COC1C(OCc2ccccc2)c2cc(NCc3ccccc3)ccc2OC1(C)C (centres unmarked) [Compound 5-300]
4.37 | CCCCOC1c2cc(NC)ccc2OC(C)(C)C1OCc1ccc(Br)cc1F (centres unmarked) [Compound 5-57]
1.15 | CNc1ccc2c(c1)C(OCc1ccccc1)C(OCc1ccccc1Cl)C(C)(C)O2 (centres unmarked) [Compound 5-70]

IC50 [µM] | Compound
2.57 | C#CCOC1C(OCCCC)c2cc(NC)ccc2OC1(C)C (centres unmarked) [Compound 5-64]
0.98 | CCCCOC1c2cc(NC)ccc2OC(C)(C)C1OCc1cccc(F)c1 (centres unmarked) [Compound 5-52]
6.21 | C/C=C/COC1C(OCC)c2cc(NCc3ccc(F)cc3)ccc2OC1(C)C (centres unmarked) [Compound 5-478]
6.06 | CNc1ccc2c(c1)C(OCc1ccccc1)C(OCc1ccc(C(C)(C)C)cc1)C(C)(C)O2 (centres unmarked) [Compound 5-67]
2.46 | C=CCOC1C(OCCCC)c2cc(NC)ccc2OC1(C)C (centres unmarked) [Compound 5-63]
2.85 | CNc1ccc2c(c1)C(OCc1ccccc1)C(OCc1ccc(Br)cc1F)C(C)(C)O2 (centres unmarked) [Compound 5-73]
6.01 | CCCCOC1c2cc(NCc3ccc(F)cc3)ccc2OC(C)(C)C1OC(=O)c1cccs1 (centres unmarked) [Compound 5-1799]
1.7 | CNc1ccc2c(c1)C(OCc1ccccc1)C(OCc1cccc(Cl)c1)C(C)(C)O2 (centres unmarked) [Compound 5-71]
3.9 | CCCCOC1c2cc(NCc3ccc(F)cc3)ccc2OC(C)(C)C1OC(=O)c1ccco1 (centres unmarked) [Compound 5-1800]
3.68 | Cc1ccccc1COC1C(OCc2ccccc2)c2cc(NCc3ccccc3)ccc2OC1(C)C (centres unmarked) [Compound 5-293]
1.8 | CCCCOC1c2cc(NC)ccc2OC(C)(C)C1OCc1ccccc1C (centres unmarked) [Compound 5-53]
4.01 | CNc1ccc2c(c1)C(OCCC1CCCCC1)C(OCc1ccc(C)cc1)C(C)(C)O2 (centres unmarked) [Compound 5-104]
3.6 | CNc1ccc2c(c1)C(OCc1ccccc1)C(OCc1ccc3ccccc3c1)C(C)(C)O2 (centres unmarked) [Compound 5-74]
1.42 | CNc1ccc2c(c1)C(OCc1ccccc1)C(OCc1ccccc1C)C(C)(C)O2 (centres unmarked) [Compound 5-69]
4.9 | CCCCOC1c2cc(NC)ccc2OC(C)(C)C1OCc1ccc(F)cc1 (centres unmarked) [Compound 5-50]

Continued, compound first:

Compound | IC50 [µM]
CCNc1ccc2c(c1)C(OC)C(OC(=O)c1ccc(F)cc1)C(C)(C)O2 (centres unmarked) [Compound 5-1558] | 3.37
COC1c2cc(NCc3ccc(F)cc3)ccc2OC(C)(C)C1OC(=O)c1cccs1 (centres unmarked) [Compound 5-1769] | 5.97
COC1c2cc(NCc3ccc(C)cc3)ccc2OC(C)(C)C1OC(C)=O (centres unmarked) [Compound 5-1831] | 2.71
CCOC1c2cc(NCc3ccc(F)cc3)ccc2OC(C)(C)C1OCc1ccc(C)cc1 (centres unmarked) [Compound 5-472] | 3.9
CC1(C)Oc2ccc(NCc3ccccc3)cc2C(OCc2ccccc2)C1OCc1cccc(F)c1 (centres unmarked) [Compound 5-292] | 3.25
CC1(C)Oc2ccc(NCc3ccccc3)cc2C(OCc2ccccc2)C1OCc1ccc(F)cc1 (centres unmarked) [Compound 5-290] | 3.02
CC1(C)Oc2ccc(NCc3ccc(F)cc3)cc2C(OCc2ccccc2)C1OC(=O)c1cccs1 (centres unmarked) [Compound 5-1809] | 6.36
CC1(C)Oc2ccc(NCc3ccccc3)cc2C(OCCc2ccccc2)C1OCc1cccc(F)c1 (centres unmarked) [Compound 5-308] | 4.75
CC1(C)Oc2ccc(NCc3ccccc3)cc2C(OCc2ccccc2)C1OCc1ccc2ccccc2c1 (centres unmarked) [Compound 5-298] | 6.07
COC1c2cc(NCc3ccc(C)cc3)ccc2OC(C)(C)C1OC(=O)c1ccc(C)cc1 (centres unmarked) [Compound 5-1836] | 1.16
COC1c2cc(NCc3ccc(C)cc3)ccc2OC(C)(C)C1OC(=O)CC(C)(C)C (centres unmarked) [Compound 5-1832] | 1.09
CCCOC(=O)c1cc(O)c(O)c(O)c1 [N-propyl gallate, reference compound] | 25
CCOC1c2cc(NCc3ccc(F)cc3)ccc2OC(C)(C)C1OCc1ccc2ccccc2c1 (centres unmarked) [Compound 5-474] | 3.45
CC1(C)Oc2ccc(NCc3ccccc3)cc2C(OCCc2ccccc2)C1OCc1ccc(Br)cc1F (centres unmarked) [Compound 5-313] | 1.44
CCOC1c2cc(NCc3ccc(F)cc3)ccc2OC(C)(C)C1OCc1ccc(F)cc1 (centres unmarked) [Compound 5-466] | 1.2
CCOC1c2cc(NCc3ccc(F)cc3)ccc2OC(C)(C)C1OCc1cccc(Cl)c1 (centres unmarked) [Compound 5-471] | 4.85
Cc1ccc(COC2C(OCCc3ccccc3)c3cc(NCc4ccccc4)ccc3OC2(C)C)cc1 (centres unmarked) [Compound 5-312] | 4.13
CCCCOC1c2cc(NCc3ccc(F)cc3)ccc2OC(C)(C)C1OC(=O)c1ccc(OC)cc1 (centres unmarked) [Compound 5-1797] | 3.56
CCNc1ccc2c(c1)C(OC)C(OC(=O)CC(C)(C)C)C(C)(C)O2 (centres unmarked) [Compound 5-1552] | 5.43
CCNc1ccc2c(c1)C(OCC)C(OC(=O)c1ccc(F)cc1)C(C)(C)O2 (centres unmarked) [Compound 5-1568] | 4.09
CCNc1ccc2c(c1)C(OCC)C(OC(C)=O)C(C)(C)O2 (centres unmarked) [Compound 5-1561] | 2.89
C#CCOC1C(OC)c2cc(NCc3ccc(F)cc3)ccc2OC1(C)C (centres unmarked) [Compound 5-464] | 3.81
COC1c2cc(NCc3ccc(C)cc3)ccc2OC(C)(C)C1OCc1cccc(F)c1 (centres unmarked) [Compound 5-564] | 4.33
CC(C)(C)CC(=O)OC1C(OCc2ccccc2)c2cc(NCc3ccc(F)cc3)ccc2OC1(C)C (centres unmarked) [Compound 5-1802] | 4.12
CC1(C)Oc2ccc(NCc3ccc(F)cc3)cc2C(OCc2ccccc2)C1OC(=O)c1ccco1 (centres unmarked) [Compound 5-1840] | 1.03
CNc1ccc2c(c1)C(OC)C(OC(=O)CC(C)(C)C)C(C)(C)O2 (centres unmarked) [Compound 5-1482] | 5.27
CCNc1ccc2c(c1)C(OC)C(OC(=O)c1ccco1)C(C)(C)O2 (centres unmarked) [Compound 5-1560] | 2.31
CCOC1c2cc(NCc3ccc(F)cc3)ccc2OC(C)(C)C1OCc1cccc(F)c1 (centres unmarked) [Compound 5-468] | 4.27
